According to patent publication US20100209931A1, “Compositions for Identifying Novel Compositions for the Treatment of Disease and Methods of Using Same” (priority 2009, published 2010):
Entries after “also recorded” stand apart in the source; their conditions may differ.

Experiments:
[1] = system: cells lacking IRA2; assay: growth of cells lacking IRA2, 96-well plates; assay type: cell-based, Saccharomyces cerevisiae
[2] = system: erg6Δ iralΔ ira2Δ; assay: 96-well plate growth assay, erg6Δ ira1Δ ira2Δ strain; conditions: genotype erg6Δ iralΔ ira2Δ; OD 595 nm after 24 hours
Protocol: Wild type yeast cells (MLY41 a strain derived from the Σ11278b background) and cells having the genotypes shown in Table 2 are grown overnight in SC media, 75 μL of culture at a starting optical density of 0.1 are added to a 96 well plate containing 75 μL of SC media with twice the desired final concentration of the compound of Formula I in 1% DMSO. Plates are incubated in a humidified 30° C. chamber and scanned on an optical density plate reader at 595 nm after 24 hours. […] Strains are treated as described above, and the growth of the culture is monitored for 24 hours at the indicated intervals. The points represent the mean of three wells per condition.

[3] = system: erg6Δ cells; assay: 96-well plate growth assay, erg6Δ strain; assay type: cell-based, Saccharomyces cerevisiae
[4] = system: erg6Δ ira2Δ cells; assay: 96-well plate growth assay, erg6Δ ira2Δ strain; assay type: cell-based, Saccharomyces cerevisiae; conditions: for sensitivity of growth to compound: erg6Δ ira2Δ, 96-well plate growth assay, optical density, 30° C.
[5] = system: MPNST cell lines; assay: growth of MPNST cell lines; assay type: cell-based, human
[6] = system: erg6Δ ira2Δ cells; assay: growth on solid agar media, serial dilutions spotted; conditions: SC plates with compound, three days at 30° C.

Structure (SMILES): N=C(N)SCc1cn(-c2ccccc2)nc1-c1cccc(Br)c1 [Formula II]
- growth of cells lacking IRA2 ([1]; FIG. 7): Growth inhibition
- Effect of Compound of Formula II (inhibition at concentration) [2]: Inhibition at less than 10 uM
- Effect of Compound of Formula II ([3]; genotype erg6Δ, OD 595 nm after 24 hours): Inhibition at 50 uM
- sensitivity of growth to compound [4]: differential sensitivity
- Effect of Compound of Formula II ([4]; genotype ira2Δ, erg6Δ, OD 595 nm after 24 hours): Inhibition at 10 uM and 50 uM

Structure (SMILES): COc1cccc(-c2cc(=O)c3ccccc3o2)c1N [PD98059]
- growth in MPNST lines [5]: inhibiting growth
- selective suppression of growth of NF1-/- MPNST cell line relative to NF1+/+ MPNST line ([5]; NF1−1− MPNST cell line relative to NF1+/+ MPNST line): selectively suppress growth
- sensitivity of growth to compound ([3]; erg6Δ alone, 96-well plate growth assay): not sensitive
- sensitivity of growth on agar media [6]: increased sensitivity
- sensitivity of cells lacking ERG6 and IRA2 ([4]; 50 μM PD98059): sensitive
- sensitivity of cells lacking ERG6 and IRA2 ([4]; 25 μL (so in the source) PD98059, 24 hours): less sensitive
- sensitivity of growth to compound [4]: sensitized; also recorded: increased sensitivity

Structure (SMILES): CC[C@@]1(O)C(=O)OCc2c1cc1n(c2=O)Cc2cc3ccccc3nc2-1 [camptothecin]
- sensitivity of growth on agar media [6]: differential sensitivity; also recorded: sensitizes

Structure (SMILES): CO[C@H]1C[C@@H]2CC[C@@H](C)[C@@](O)(O2)C(=O)C(=O)N2CCCC[C@H]2C(=O)O[C@H]([C@H](C)C[C@@H]2CC[C@@H](O)[C@H](OC)C2)CC(=O)[C@H](C)/C=C(\C)[C@@H](O)[C@@H](OC)C(=O)[C@H](C)C[C@H](C)/C=C/C=C/C=C/1C [rapamycin]
- growth inhibition of cells lacking IRA2 by rapamycin alone ([1]; rapamycin dose used in combination, 24 hours): does not inhibit
